This is an account of results in US20090076092A1, “METHOD FOR DISRUPTING REPRODUCTIVE PERFORMANCE OF ARTHROPODS” (priority 2006, published 2009).

SMILES strings stand for the structures.

This assay concerns green peach aphid (Myzus persicae Sulzer). Nature of the assay: Test B: nymph production by green peach aphid after 24 hours exposure on treated radish plants. The class given is in vivo. Particulars: for Living (%) / On plant (%): 1 DAT; for Living (%): all aphids alive 24 h after treatment; for On plant (%): all aphids on the treated plant; for No. of nymphs (mean ± SE): per adult. Here is the method: For evaluating reproductive performance effects on green peach aphid (Myzus persicae Sulzer), each test unit consisted of a radish plant grown in a 6 cm×6 cm square pot infested with a mixed population (nymphs and adults) of green peach aphids from a laboratory-reared culture. Each plant was infested with about 100 aphids. Test solutions were prepared and sprayed on the test plants (2 plants per treatment) as described for TEST A. Treatments included Compound 1 at 100 and 500 ppm, Compound 2 at 4 and 6 ppm, and a control without test compound.
Aphids were kept on the treated plants for 24 hours, and then only adult aphids staying on the treated plant were transferred to untreated radish plants grown singly in a 6 cm×6 cm square pots. One test unit or one replicate consisted of a single adult aphid on a radish plant in a pot. The number of nymphs in each replicate was counted 4 and 6 days after treatment. At the higher concentration of each test compound a total of 45 replicates were used, and at the lower concentration of each test compound a total of 30 replicates were used. In addition, prior to transferring aphids singly to the untreated radish plants one day after treatment (1 DAT), the total number of aphids living and those remaining on the treated plant were counted.
The results are listed in Table B. Square-root transformation was done on the number of nymphs produced per adult (female) aphid, and the data were analyzed using analysis of variance (ANOVA) and Fisher's Least Significant Difference (LSD) tests for separation of means.

In the case of `CNC(=O)c1cc(Cl)cc(C)c1NC(=O)c1cc(Br)nn1-c1ncccc1Cl` [Compound 1, 3-bromo-N-[4-chloro-2-methyl-6-[(methylamino)carbonyl]phenyl]-1-(3-chloro-2-pyridinyl)-1H-pyrazole-5-carboxamide], the “Living (%)” value runs as follows: (100 ppm) 99.9%; (500 ppm) 99.6%. Moreover, the “On plant (%)” value (100 ppm) is 99.6% and the “On plant (%)” value (500 ppm) amounted to 99.9%. The “No. of nymphs (mean ± SE)” value by setting is: (100 ppm, 4 DAT) 3.5 ± 0.3 b; (100 ppm, 6 DAT) 7.3 ± 0.4 a; (500 ppm, 4 DAT) 4.6 ± 0.3 a; (500 ppm, 6 DAT) 8.1 ± 0.5 a.
